Biological target: T1, trypsin-activated recombinant human renin (Homo sapiens, UniProt P00797)
T1 sequence (P00797 67-406): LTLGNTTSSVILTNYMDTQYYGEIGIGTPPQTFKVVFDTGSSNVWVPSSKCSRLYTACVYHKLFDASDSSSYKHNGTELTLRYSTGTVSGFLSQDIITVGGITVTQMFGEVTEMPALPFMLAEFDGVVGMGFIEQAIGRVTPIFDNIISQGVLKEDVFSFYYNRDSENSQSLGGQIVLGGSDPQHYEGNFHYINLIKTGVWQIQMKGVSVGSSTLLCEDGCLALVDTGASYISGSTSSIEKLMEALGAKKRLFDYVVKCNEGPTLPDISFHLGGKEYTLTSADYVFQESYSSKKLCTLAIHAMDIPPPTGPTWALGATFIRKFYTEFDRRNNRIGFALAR
Test: In vitro IC50 for renin, fluorescence increase of internally quenched peptide substrate (protocol of Example 2)
Type: biochemical
Conditions: protocol described in Example 2; DABCYL/EDANS peptide substrate, pH 7.0, rt
Method: The sequence of this peptide corresponds to the sequence of human angiotensinogen. The following test protocol is used: All reactions are carried out in a flat bottom white opaque microtiter plate. A 4 μL aliquot of 400 μM renin substrate (DABCYL-γ-Abu-Ile-His-Pro-Phe-His-Leu-Val-Ile-His-Thr-EDANS) in 192 μL assay buffer (50 mM BES, 150 mM NaCl, 0.25 mg/mL bovine serum albumin, pH7.0) is added to 4 μL of test compound in DMSO at various concentrations ranging from 10 μM to 1 nM final concentrations. Next, 100 μL of trypsin-activated recombinant human renin (final enzyme concentration of 0.2-2 nM) in assay buffer is added, and the solution is mixed by pipetting. The increase in fluorescence at 495 nm (excitation at 340 nm) is measured for 60-360 min at rt using a Perkin-Elmer Fusion microplate reader. The slope of a linear portion of the plot of fluorescence increase as a function of time is then determined, and the rate is used for calculating percent inhibition in relation to uninhibited control. […] The IC50 is defined as the concentration of a particular inhibitor that reduces the formation of product by 50% relative to a control sample containing no inhibitor. (Wang G. T. et al. Anal. Biochem. 1993, 210, 351; Nakamura, N. et al. J. Biochem. (Toko) 1991, 109, 741; Murakaini, K. et al. Anal Biochem. 1981, 110, 232).

IC50: 113 nM
SMILES: CCCCNC(=O)C[C@H](O)[C@H](CC1CCCCC1)NC(=O)N1CCC[C@@H]([C@@H](OCCNC(=O)OC)c2cccc(Cl)c2)C1 [Example 1, methyl 2-((R)-((R)-1-((2S,3S)-5-(butylamino)-1-cyclohexyl-3-hydroxy-5-oxopentan-2-ylcarbamoyl)piperidin-3-yl)(3-chlorophenyl)methoxy)ethylcarbamate]

Reference: patent US7858624B2, “Piperidine and morpholine renin inhibitors” (Vitae Pharmaceuticals, Inc., priority 2006, dated 2010)
